The record followed here is patent US9120805B2, “Substituted pyrrolo[1,2-A]pyrazin-1-ones and pyrazolo[1,5-A]pyrazin-4-ones as inhibitors of tankyrase and poly(ADP-ribose)polymerase activity” (Merck Patent GmbH, priority 2012, dated 2015).

Common to all, as to type: biochemical
Assay [1] addresses T1, GST-tagged Tnks-1 (1023-1327 aa) (Homo sapiens, UniProt O95271).
T1 construct: GST-tagged Tnks-1 (1023-1327 aa, prepared in-house); made in house
The assay is described as follows: TNKS1 activity ELISA (autoparsylation assay). As to the method: (§1) Description of the TNKS1 and TNKS2 ELISA Assay
(§2) Biochemical Activity Testing of TNKS 1 and 2: Activity ELISA (Autoparsylation Assay)
(§3) For analysis of autoparsylation activity of TNKS 1 and 2 an activity ELISA is performed: In the first step GST tagged TNKS is captured on a Glutathione coated plate. Then the activity assay with biotinylated NAD is performed in the absence/presence of the compounds. During the enzymatic reaction GST tagged TNKS transfers biotinylated ADP-ribose to itself from biotinylated NAD as co-substrate. For the detection streptavidin-HRP conjugate is added that binds to the biotinylated TNKS and is thereby captured to the plates. The amount of biotinylated resp. autoparsylated TNKS is detected with a luminescence substrate for HRP. The level of the luminescence signal correlates directly with the amount of autoparsylated TNKS and therefore with activity of TNKS.
(§4) The activity ELISA is performed in 384 well Glutathione coated microtiter plates (Express capture Glutathione coated plate, Biocat, Heidelberg, Germany). The plates are pre-equilibrated with PBS. Then the plates are incubated with 50 μl 20 ng/well GST-tagged Tnks-1 (1023-1327 aa, prepared in-house), respectively GST-tagged Tnks-2 (873-1166 aa, prepared in-house) in assay buffer (50 mM HEPES, 4 mM Mg-chloride, 0.05% Pluronic F-68, 2 mM DTT, pH 7.7) overnight at 4° C. The plates are washed 3 times with PBS-Tween-20. The wells are blocked by incubation at room temperature for 20 minutes with 50 μl blocking buffer (PBS, 0.05% Tween-20, 0.5% BSA). Afterwards the plates are washed 3 times with PBS-Tween-20. The enzymatic reaction is performed in 50 μl reaction solution (50 mM HEPES, 4 mM Mg-chloride, 0.05% Pluronic F-68, 1.4 mM DTT, 0.5% DMSO, pH 7.7) with 10 μM bio-NAD (Biolog, Life science Inst., Bremen, Germany) as co-substrate in the absence or presence of the test compound (10 dilution concentrations) for 1 hour at 30° C. The reaction is stopped by 3 times washing with PBS-Tween-20. For the detection 50 μl of 20 ng/μl Streptavidin, HRP conjugate (MoBiTec, Göttingen, Germany) in PBS/0.05% Tween-20/0.01% BSA are added and the plates are incubated for 30 minutes at room temperature. After three times washing with PBS-Tween-20 50 μl of SuperSignal ELISA Femto Maximum sensitivity substrate solution (ThermoFisherScientific (Pierce), Bonn, Germany) are added. Following a 1 minute incubation at room temperature luminescence signals are measured with an Envision multimode reader (Perkin Elmer LAS Germany GmbH) at 700 nm. The full value used is the inhibitor-free reaction. The pharmacological zero value used is XAV-939 (Tocris) in a final concentration of 5 μM. The inhibitory values (1050) are determined using either the program Symyx Assay Explorer® or Condosseo® from GeneData.

Assay [2] deals with T2, GST-tagged Tnks-2 (873-1166 aa) (Homo sapiens, UniProt Q9H2K2).
T2 construct: GST-tagged Tnks-2 (873-1166 aa, prepared in-house); made in house
In words: TNKS2 activity ELISA (autoparsylation assay). On the procedure:
as §1, §2, §3, §4

The target in assay [3] is T3, GST-tagged Tankyrase-2 (873-1166 aa) (Homo sapiens, UniProt Q9H2K2).
T3 construct: GST-tagged Tankyrase-2 (873-1166 aa)
The assay is described as follows: Tankyrase 2 autoparsylation assay (HTRF enzyme assay). The procedure, abridged: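 ~250 nM GST-tagged enzyme with 5 μM biotin-NAD in HEPES/Mg/DTT buffer pH 7.7, 10 compound concentrations, 90 min at 30 °C; EDTA stop. Eu-anti-GST/streptavidin-Xlent HTRF read (665/615 ratio) after 1 h RT. IC50 relative to inhibitor-free reaction and 5 μM XAV-939 as zero.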

T1 sequence (O95271 1023-1327): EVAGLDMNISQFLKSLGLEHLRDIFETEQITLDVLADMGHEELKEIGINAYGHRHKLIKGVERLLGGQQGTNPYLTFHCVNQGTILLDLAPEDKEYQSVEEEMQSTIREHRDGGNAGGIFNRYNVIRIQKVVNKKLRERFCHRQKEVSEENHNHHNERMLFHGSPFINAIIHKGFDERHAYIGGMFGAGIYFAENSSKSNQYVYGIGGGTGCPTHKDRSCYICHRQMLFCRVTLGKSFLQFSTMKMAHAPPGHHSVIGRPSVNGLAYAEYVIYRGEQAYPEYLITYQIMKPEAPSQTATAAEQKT
T3 sequence (Q9H2K2 873-1166): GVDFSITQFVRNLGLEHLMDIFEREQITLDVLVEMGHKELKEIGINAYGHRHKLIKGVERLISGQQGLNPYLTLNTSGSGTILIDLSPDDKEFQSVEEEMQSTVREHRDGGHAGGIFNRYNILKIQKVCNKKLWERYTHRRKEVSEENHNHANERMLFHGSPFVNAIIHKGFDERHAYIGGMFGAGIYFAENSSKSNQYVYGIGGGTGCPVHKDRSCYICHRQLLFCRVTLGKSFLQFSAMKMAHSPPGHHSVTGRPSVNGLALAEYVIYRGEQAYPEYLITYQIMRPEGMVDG
T2 sequence (Q9H2K2 873-1166): as above

In the case of `CCC(O)(CC)c1ccc(-c2cn3cc(F)cc3c(=O)[nH]2)cc1` [Compound A61, 3-[4-(1-ethyl-1-hydroxy-propyl)-phenyl]-7-fluoro-2H-pyrrolo[1,2-a]pyrazin-1-one], the IC50 in assay [1], in assay [2] and in assay [3] was less than 300 nM throughout.

As for `Cc1ccc(-c2cn3cccc3c(=O)[nH]2)cc1` [Compound A12, 3-p-tolyl-2H-pyrrolo[1,2-a]pyrazin-1-one], the half-inhibitory concentration (IC50) in assay [1] is less than 300 nM; in assay [2] it was less than 300 nM; in assay [3], 300 to 3000 nM.

With `CC(C)(O)c1ccc(-c2cn3cccc3c(=O)[nH]2)cc1` [Compound A29, 3-[4-(1-hydroxy-1-methyl-ethyl)-phenyl]-2H-pyrrolo[1,2-a]pyrazin-1-one], the IC50 in assay [1], in assay [2] and in assay [3] was less than 300 nM throughout.

On to `O=c1[nH]c(-c2ccc(C3(O)CCC3)cc2)cn2cccc12` [Compound A111], for which the IC50 in assay [1], in assay [2] and in assay [3] was less than 300 nM throughout.

As for `CN1CCC(c2ccc(-c3cn4cccc4c(=O)[nH]3)cc2)C1` (stereo not drawn) [Compound A80, 3-[4-(1-methyl-pyrrolidin-3-yl)-phenyl]-2H-pyrrolo[1,2-a]pyrazin-1-one], the results for the IC50 in assay [1], in assay [2] and in assay [3] were less than 300 nM, less than 300 nM and 300 to 3000 nM, respectively.

Consider `COCCOC(C)(C)c1ccc(-c2cn3cc(F)cc3c(=O)[nH]2)cc1` [Compound A71, 7-fluoro-3-{4-[1-(2-methoxy-ethoxy)-1-methyl-ethyl]-phenyl}-2H-pyrrolo[1,2-a]pyrazin-1-one], for which the values for the IC50 in assay [1], in assay [2] and in assay [3] were less than 300 nM, less than 300 nM and 300 to 3000 nM, respectively.

As for `CC(C)(O)c1ccc(-c2cn3cc(Cl)cc3c(=O)[nH]2)cc1` [Compound A60, 7-chloro-3-[4-(1-hydroxy-1-methyl-ethyl)-phenyl]-2H-pyrrolo[1,2-a]pyrazin-1-one], the IC50 in assay [1], in assay [2] and in assay [3] was less than 300 nM each time.

With `Cc1cc2c(=O)[nH]c(-c3ccc(C(C)(C)O)cc3)cn2n1` [Compound A46, 6-[4-(1-hydroxy-1-methyl-ethyl)phenyl]-2-methyl-5H-pyrazolo[1,5-a]pyrazin-4-one], the half-inhibitory concentration (IC50) in assay [1] is less than 300 nM; in assay [2] it was less than 300 nM; in assay [3], 300 to 3000 nM.

Consider `CC(C)(O)c1ccc(-c2cn3cc(F)cc3c(=O)[nH]2)cc1` [Compound A59, 7-fluoro-3-[4-(1-hydroxy-1-methyl-ethyl)-phenyl]-2H-pyrrolo[1,2-a]pyrazin-1-one], for which the IC50 in assay [1], in assay [2] and in assay [3] was less than 300 nM each time.

For `O=c1[nH]c(-c2ccc(C3CCNC3)cc2)cn2cccc12` (stereo not drawn) [Compound A76, 3-(4-Pyrrolidin-3-yl-phenyl)-2H-pyrrolo[1,2-a]pyrazin-1-one], the IC50 in assay [1] was less than 300 nM; in assay [2], less than 300 nM; in assay [3], 300 to 3000 nM.

Regarding `CC(C)(OCCO)c1ccc(-c2cn3cc(F)cc3c(=O)[nH]2)cc1` [Compound A70, 7-fluoro-3-{4-[1-(2-hydroxy-ethoxy)-1-methyl-ethyl]-phenyl}-2H-pyrrolo[1,2-a]pyrazin-1-one], the IC50 in assay [1], in assay [2] and in assay [3] was less than 300 nM in each case.

With `O=c1[nH]c(-c2ccc(C3CCNCC3)cc2)cn2cccc12` [Compound A75, 3-(4-piperidin-4-yl-phenyl)-2H-pyrrolo[1,2-a]pyrazin-1-one], the IC50 in assay [1], in assay [2] and in assay [3] was less than 300 nM throughout.

With `CC(C)(C)c1ccc(-c2cn3cc(F)cc3c(=O)[nH]2)cc1` [Compound A35, 3-(4-tert-butyl-phenyl)-7-fluoro-2H-pyrrolo[1,2-a]pyrazin-1-one], the IC50 in assay [1], in assay [2] and in assay [3] was less than 300 nM each time.

As to `CC(C)(N)c1ccc(-c2cn3cc(F)cc3c(=O)[nH]2)cc1` [Compound A72, 3-[4-(1-amino-1-methyl-ethyl)-phenyl]-7-fluoro-2H-pyrrolo[1,2-a]pyrazin-1-one], the IC50 in assay [1], in assay [2] and in assay [3] was less than 300 nM throughout.

With `Cn1cc(-c2ccc(-c3cn4cccc4c(=O)[nH]3)cc2)cn1` [Compound A25, 3-[4-(1-methyl-1H-pyrazol-4-yl)-phenyl]-2H-pyrrolo[1,2-a]pyrazin-1-one], the IC50 in assay [1], in assay [2] and in assay [3] was less than 300 nM throughout.

With `CC(C)(F)c1ccc(-c2cn3cc(F)cc3c(=O)[nH]2)cc1` [Compound A63, 7-fluoro-3-[4-(1-fluoro-1-methyl-ethyl)-phenyl]-2H-pyrrolo[1,2-a]pyrazin-1-one], the IC50 in assay [1] is less than 300 nM; in assay [2], less than 300 nM; in assay [3] it was 300 to 3000 nM.

`CC1(c2ccc(-c3cn4cc(F)cc4c(=O)[nH]3)cc2)CCCO1` (stereo not drawn) [Compound A73, 7-fluoro-3-[4-(2-methyl-tetrahydro-furan-2-yl)-phenyl]-2H-pyrrolo[1,2-a]pyrazin-1-one]: the half-inhibitory concentration (IC50) in assay [1], in assay [2] and in assay [3] was less than 300 nM throughout.

With `Cc1cc2c(=O)[nH]c(-c3ccc(C(C)(C)O)cc3)cn2c1` [Compound A56, 3-[4-(1-hydroxy-1-methyl-ethyl)-phenyl]-7-methyl-2H-pyrrolo[1,2-a]pyrazin-1-one], the values for the IC50 in assay [1], in assay [2] and in assay [3] were less than 300 nM, less than 300 nM and 300 to 3000 nM, respectively.

Regarding `CN1CCC(c2ccc(-c3cn4cccc4c(=O)[nH]3)cc2)CC1` [Compound A79, 3-[4-(1-methyl-piperidin-4-yl)-phenyl]-2H-pyrrolo[1,2-a]pyrazin-1-one], the IC50 in assay [1], in assay [2] and in assay [3] was less than 300 nM each time.

With `CC(C)(C)c1ccc(-c2cn3cccc3c(=O)[nH]2)cc1` [Compound A11, 3-(4-tert-butyl-phenyl)-2H-pyrrolo[1,2-a]pyrazin-1-one], the IC50 in assay [1], in assay [2] and in assay [3] was less than 300 nM in each case.
